{
  "source": "patent US20050176740A1",
  "about": "“Cancer treatment method comprising administering an erb-family inhibitor and a raf and/or ras inhibitor” (priority 2002, published 2005)",
  "assay_type_in_all_cases": "cell-based, human",
  "key": {"[1]": {"system": "pTyr in Ha-(Val12)-ras transfected HB4a cells", "test": "Western blot of tyrosine phosphorylation (pTyr) after GW2016 treatment, FIG. 2", "settings": "1 μM or 5 μM GW2016/72 hours", "description": "(§1) The HB4a cell line was derived from human mammary luminal tissue. HB4a-erbB2 and HB4a-ras cell lines were generated by overexpression of erbB2 and mutant Ha-(Val-12)-ras in HB4a cell line. The S1 cell line was established by sub-cloning ErbB-2 transfected HB4a (see Harris R A, Eichholtz T J, Hiles J D, Page M J and O'Hare M J. (1999). Int J. Cancer. 80, 477, 484.)\n(§2) HB4a cells grew in RPMI 1640 supplemented with L-glutamine, 10% FBS (Hyclone), 10 ug/ml hydrocortisone, and 5 ug/ml insulin. S1 and ras transfected cells were cultured in RPMI 1640 supplemented with L-glutamine, 10% FBS and 50 μg/ml hygromycin. Cell cultures were maintained in a humidified atmosphere of 5% CO2 at 37° C.\n(§3) (a) The dual EGFR/erbB-2 inhibitor N-{3-Chloro-4-[(3-fluorobenzyl)oxy]phenyl}-6-[5-({[2-(methanesulphonyl)ethyl]amino}methyl)-2-furyl]-4-quinazolinamine and the cRaf-1 inhbitor of 3-(3,5-Dibromo-4-hydroxy-benzylidene)-5-iodo-1,3-dihydro-indol-2-one were dissolved in 100% DMSO to form solutions of 1, 5, 10, and 20 μM concentrations and tested on cells in growth medium for 3 continuous days. […]\n(§4) Whole cell extracts were prepared by scraping cells off petri dishes, washing the cell pellet twice in PBS, and then resuspending the pellet in two-packed-cell volumes of RIPA buffer (150 mM NaCl, 50 mM Tris-HCl, pH 7.5, 0.25% deoxycholate, 1% NP-40, 5 mM sodium orthovanadate, 2 mM sodium fluoride and a protease inhibitor cocktail). Protein concentrations were determined using a modification of the Bradford method (Bio-Rad Laboratory). Steady state levels of total erbB-2, EGFR, Ras, Erk1/2, pErk1/2 and pTyr protein were assessed by Western blot which was carried out as follows: equal amounts of proteins was resolved by 7.5% SDS polyacrylamide gel electrophoresis under reducing conditions. […] Efficiency and equal loading of proteins was evaluated by Ponceau S staining. […]\n(§5) HB4a cells growing in RPMI 1640 supplemented with L-glutamine, 10% FBS (Hyclone), 10 ug/ml hydrocortisone, and 5 μg/ml insulin. […] Protein concentrations were determined using a modification of the Bradford method (Bio-Rad Laboratory)."}, "[2]": {"system": "pTyr in erbB-2 transfected HB4a cells", "test": "Western blot of tyrosine phosphorylation (pTyr) after GW2016 treatment, FIG. 2", "settings": "1 μM or 5 μM GW2016/72 hours", "description": "as §1, §2, §3, §4, §5"}, "[3]": {"system": "pTyr in parental HB4a cells", "test": "Western blot of tyrosine phosphorylation (pTyr) after GW2016 treatment, FIG. 2", "settings": "1 μM or 5 μM GW2016/72 hours", "description": "as §1, §2, §3, §4, §5"}, "[4]": {"system": "pErk1/Erk2 in Ha-(Val12)-ras transfected HB4a cells", "test": "Western blot of MAPK activation (pErk1/Erk2) after GW2016 treatment, FIG. 3", "settings": "Ha-(Val 12)-ras transfected HB4a cells; 1 μM or 5 μM GW2016/72 hours", "description": "as §1, §2, §3, §4, §5"}, "[5]": {"system": "pErk1/Erk2 in erbB-2 transfected HB4a cells", "test": "Western blot of MAPK activation (pErk1/Erk2) after GW2016 treatment, FIG. 3", "settings": "1 μM or 5 μM GW2016/72 hours", "description": "as §1, §2, §3, §4, §5"}, "[6]": {"system": "pErk1/Erk2 in parental HB4a cells", "test": "Western blot of MAPK activation (pErk1/Erk2) after GW2016 treatment, FIG. 3", "settings": "1 μM or 5 μM GW2016/72 hours", "description": "as §1, §2, §3, §4, §5"}},
  "data": [
    {"smiles": "CS(=O)(=O)CCNCc1ccc(-c2ccc3ncnc(Nc4ccc(OCc5cccc(F)c5)c(Cl)c4)c3c2)o1", "note": "[GW2016, N-{3-Chloro-4-[(3-fluorobenzyl)oxy]phenyl}-6-[5-({[2-(methanesulphonyl)ethyl]amino}methyl)-2-furyl]-4-quinazolinamine]", "values": [
      {"measurement": "effect on phosphorylation on tyrosine residues (pTyr), Western blot", "setting": "[1]", "value": "no effect"},
      {"measurement": "tyrosine phosphorylation (pTyr), Western blot", "setting": "[2]", "value": "reduction in tyrosine phosphorylation"},
      {"measurement": "tyrosine phosphorylation (pTyr), Western blot", "setting": "[3]", "value": "reduction in tyrosine phosphorylation"},
      {"measurement": "phosphorylation of Erk1/Erk2, Western blot", "setting": "[4]", "value": "no effect"},
      {"measurement": "pErk1/Erk2, Western blot", "setting": "[5]", "value": "decrease in pErk1/Erk2"},
      {"measurement": "Erk1/Erk2 phosphorylation, Western blot", "setting": "[6]", "value": "reduction in Erk1/Erk2 phosphorylation"}
    ]}
  ]
}
